Type in all cases: cell-based
Assay [1] relates to pAKT in T47D (PI3Kα H1047R mutant) cells. The assay is described as follows: Inhibition of pAKT (alphaLISA Surefire Ultra AKT 1/2/3 pS473) in T47D cells. As to conditions: Homo sapiens; T47D (PI3Kα H1047R mutant) cells, 24 hr compound incubation, alphaLISA pS473; read-out: T47D (H1047R) pAKT 24 hr (IC50). The method in brief: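 AlphaLISA read-out of AKT pS473 in lysates after roughly 24 h compound exposure at 37° C in HBSS. Ten concentrations, 1:4 dilutions from a 10.4 μm top dose. Percent of control uses alpelisib at 3.125 μm as background and DMSO as vehicle; four-parameter curve gives IC50.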

For assay [2], the system named is SKBR3 (PI3Kα wild type) cells. The assay is described as follows: Cell viability (CellTiter-Glo 2.0) in SKBR3 cells. Conditions: Homo sapiens, SK-BR-3; SKBR3 (PI3Kα wild type) cells, approximately 72 hours, CellTiter-Glo 2.0; read-out: SKBR3 (WT) Viability IC50. The method in brief: (§1)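 IC50 values derive from four-parameter fits of CellTiter-Glo luminescence expressed as percent of vehicle control. Cells (T47D or SKBR3) were plated at 1000/well the day before dosing and incubated about 72 h at 37° C with a 10-point, 1:4 series starting at 10 μm.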
For orientation: Cellular ATP, detected with luciferase, serves as a proxy for viable cell number.

Assay [3] has as its system T47D (PI3Kα H1047R mutant) cells. The assay is described as follows: Cell viability (CellTiter-Glo 2.0) in T47D cells. As to conditions: Homo sapiens, T47D, 72 h, approximately 72 hours. In short, it runs like this: as §1

As usually defined, the IC50 is the midpoint of a concentration-inhibition curve. As for `Cc1cc([C@@H](C)Nc2ccccc2C(=O)O)c2nc(N3CCC(F)(F)CC3)c(C)nc2c1` [Example 36, (R)-2-((1-(3-(4,4-difluoropiperidin-1-yl)-2,7-dimethylquinoxalin-5-yl)ethyl)amino)benzoic acid], the values for the IC50 in assay [1], in assay [2] and in assay [3] were 93.7 nM, over 10000 nM and 1170 nM, respectively.
As to `COC[C@H]1[C@H]2CN(c3nc4c([C@@H](C)Nc5ccc(Cl)nc5C(=O)O)cc(C)cc4nc3C#N)C[C@@H]12` [Example 213, 6-chloro-3-(((R)-1-(2-cyano-3-((1R,5S,6S)-6-(methoxymethyl)-3-azabicyclo[3.1.0]hexan-3-yl)-7-methylquinoxalin-5-yl)ethyl)amino)picolinic acid], the IC50 in assay [1] stood at 0.91 nM; in assay [2] it was 9550 nM; in assay [3] it was 61 nM.
Consider `Cc1cc([C@@H](C)Nc2ccc(Cl)nc2C(=O)O)c2nc(N3CCCC(F)(F)CC3)c(C#N)nc2c1` [Example 847, (R)-6-chloro-3-((1-(2-cyano-3-(4,4-difluoroazepan-1-yl)-7-methylquinoxalin-5-yl)ethyl)amino)picolinic acid], for which the IC50 in assay [1] amounted to 1.8 nM; in assay [2], 4940 nM; in assay [3] it was 59 nM.
In the case of `Cc1cc([C@@H](C)Nc2ccc(Cl)nc2C(=O)O)c2nc(N3C[C@H]4CSC[C@H]4C3)c(C#N)nc2c1` [Example 848, 6-chloro-3-(((R)-1-(2-cyano-7-methyl-3-cis-tetrahydro-1h-thieno[3,4-c]pyrrol-5(3H)-ylquinoxalin-5-yl)ethyl)amino)picolinic acid], the IC50 in assay [1] was found to be 1.7 nM; in assay [2] it was 7680 nM; in assay [3], 90 nM.
The matching figures for `C[C@H](Nc1ccccc1C(=O)O)c1cc(F)cc2nc(C#N)c(N3CCC(F)(F)CC3)nc12` [Example 31, (S)-2-((1-(2-cyano-3-(4,4-difluoropiperidin-1-yl)-7-fluoroquinoxalin-5-yl)ethyl)amino)benzoic acid]: 561 nM, over 10000 nM and over 10000 nM.
For the compound `COC[C@@H]1CN(c2nc3c([C@@H](C)Nc4ccc(Cl)nc4C(=O)O)cc(C)cc3nc2C#N)CC1(F)F` (single isomer, unassigned) [Example 211A], the IC50 in assay [1] worked out at 5.7 nM; in assay [2], 6900 nM; in assay [3] it was 78 nM.
As for `Cc1cc([C@@H](C)Nc2ccc(Cl)nc2C(=O)O)c2nc(N3CC4C(F)C4C3)c(C#N)nc2c1` (stereo partly drawn) [Example 215, 6-chloro-3-(((1R)-1-(2-cyano-3-(6-fluoro-3-azabicyclo[3.1.0]hexan-3-yl)-7-methylquinoxalin-5-yl)ethyl)amino)picolinic acid], the 50% inhibitory concentration (IC50) is 1.6 nM in assay [1], over 10000 nM in assay [2] and 28 nM in assay [3].
For `Cc1cc([C@@H](C)Nc2ccc(Cl)nc2C(=O)O)c2nc(N3CCO[C@@H](C(F)(F)F)C3)c(C#N)nc2c1` [Example 190B, 6-chloro-3-(((R)-1-(2-cyano-7-methyl-3-((R)-2-(trifluoromethyl)morpholino)quinoxalin-5-yl)ethyl)amino)picolinic acid], the figures for the IC50 in assay [1], in assay [2] and in assay [3] were 17.3 nM, over 10000 nM and 764 nM, respectively.
On the same counts, the results for `Cc1cc([C@@H](C)Nc2ccc(Cl)nc2C(=O)O)c2nc(N3C[C@@H](F)C[C@@H]3C)c(C#N)nc2c1` [Example 246D, 6-chloro-3-(((R)-1-(2-cyano-3-((2S,4S)-4-fluoro-2-methylpyrrolidin-1-yl)-7-methylquinoxalin-5-yl)ethyl)amino)picolinic acid] are 6.8 nM, 6220 nM and 158 nM.
Regarding `Cc1cc([C@@H](C)Nc2ccccc2C(=O)O)c2nc(N3CCOCC3)c(C#N)nc2c1` [Example 57, (R)-2-((1-(2-cyano-7-methyl-3-morpholinoquinoxalin-5-yl)ethyl)amino)benzoic acid], the IC50 in assay [1] is 14 nM; in assay [2] it was over 10000 nM; in assay [3], 165 nM.
On the same counts, the results for `Cc1cc([C@@H](C)Nc2ccc(Cl)nc2C(=O)O)c2nc(N3CCC(F)(F)CC3)c(C)nc2c1` [Example 35, (R)-6-chloro-3-((1-(3-(4,4-difluoropiperidin-1-yl)-2,7-dimethylquinoxalin-5-yl)ethyl)amino)picolinic acid] are 3.1 nM, 8290 nM and 166 nM.
On the same counts, the results for `Cc1cc([C@@H](C)Nc2ccc(Cl)nc2C(=O)O)c2nc(N3CCC4(CC4)C(F)(F)C3)c(C#N)nc2c1` [Example 22, (R)-6-chloro-3-((1-(2-cyano-3-(4,4-difluoro-6-azaspiro[2.5]octan-6-yl)-7-methylquinoxalin-5-yl)ethyl)amino)picolinic acid] are 1.9 nM, 5320 nM and 79.3 nM.
On the same counts, the results for `Cc1cc([C@@H](C)Nc2ccc(Cl)nc2C(=O)O)c2nc(N3C[C@H](CO)C(F)(F)C3)c(C#N)nc2c1` (single isomer, unassigned) [Example 210A] are 0.69 nM, over 10000 nM and 135 nM.
For the compound `Cc1cc([C@@H](C)Nc2ccc(Cl)nc2C(=O)O)c2nc(NCC3(F)CC3)c(C#N)nc2c1` [Example 23, (R)-6-chloro-3-((1-(2-cyano-3-(((1-fluorocyclopropyl)methyl)amino)-7-methylquinoxalin-5-yl)ethyl)amino)picolinic acid], the IC50 in assay [1] is 0.7 nM; in assay [2], over 10000 nM; in assay [3] it was 61.9 nM.
The matching figures for `CO[C@@H](C)C1CCN(c2nc3c([C@@H](C)Nc4ccc(Cl)nc4C(=O)O)cc(C)cc3nc2C#N)CC1` (single isomer, unassigned) [Example 195B]: 0.37 nM, over 10000 nM and 100 nM.
`Cc1cc([C@@H](C)Nc2cccnc2C(=O)O)c2nc(N3CCOCC3)c(C#N)nc2c1` [Example 203, (R)-3-((1-(2-cyano-7-methyl-3-morpholinoquinoxalin-5-yl)ethyl)amino)picolinic acid]: the IC50 in assay [1] was 25.1 nM; in assay [2], 2220 nM; in assay [3], 559 nM.
For `Cc1cc([C@@H](C)Nc2ccc(Cl)nc2C(=O)O)c2nc(N3CC4CC(C3)C4(F)F)c(C#N)nc2c1` [Example 7, 6-chloro-3-(((1R)-1-(2-cyano-3-(6,6-difluoro-3-azabicyclo[3.1.1]heptan-3-yl)-7-methylquinoxalin-5-yl)ethyl)amino)picolinic acid], the results for the IC50 in assay [1], in assay [2] and in assay [3] were 0.8 nM, over 10000 nM and 59.8 nM, respectively.
As for `Cc1cc([C@@H](C)Nc2ccccc2C(=O)O)c2nc(N3CCN(C(=O)C[C@@H]4CC4(F)F)CC3)c(C#N)nc2c1` (single isomer, unassigned) [Example 197], the values for the IC50 in assay [1], in assay [2] and in assay [3] were 1.8 nM, over 10000 nM and 105 nM, respectively.
As to `CO[C@@H]1CCCN(c2nc3c([C@@H](C)Nc4ccc(Cl)nc4C(=O)O)cc(C)cc3nc2C#N)C1` [Example 196B, 6-chloro-3-(((R)-1-(2-cyano-3-((R)-3-methoxypiperidin-1-yl)-7-methylquinoxalin-5-yl)ethyl)amino)picolinic acid], the IC50 is 2.2 nM in assay [1], over 10000 nM in assay [2] and 61.4 nM in assay [3].

The record behind these values is US20240391882A1 (Mirati Therapeutics, Inc., priority 2023, published 2024).
